The target of one experiment is T1, PPARα (Homo sapiens, UniProt Q07869).
T1 construct: Either is a handle for the test and no part of the key
T1 sequence (Q07869 200-468 limits assumed): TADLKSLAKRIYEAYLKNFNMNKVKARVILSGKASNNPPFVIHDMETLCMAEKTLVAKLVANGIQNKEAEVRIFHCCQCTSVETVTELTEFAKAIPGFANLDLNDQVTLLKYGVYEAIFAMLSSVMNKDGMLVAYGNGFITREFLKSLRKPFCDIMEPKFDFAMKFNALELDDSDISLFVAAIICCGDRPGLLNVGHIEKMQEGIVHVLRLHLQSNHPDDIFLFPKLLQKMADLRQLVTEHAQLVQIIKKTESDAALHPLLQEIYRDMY
The experiment can be described thus: Crossed-curve PPAR transactivation assay (PPARα). In kind it is cell-based. The note with it: HeLN cells stably transfected with Gal-hPPARα and luciferase reporter; crossed curves vs reference agonist, Schild regression; read-out: PPARα KdApp. As to the method:
(§1) Activation of the PPAR receptors by an agonist (activator) in HeLN cells leads to the expression of a reporter gene, luciferase, which, in the presence of a substrate, generates light. The modulation of the PPAR receptors is measured by quantifying the luminescence produced after incubation of the cells in the presence of a reference agonist. The ligands will displace the agonist from its site. The measurement of the activity is performed by quantifying the light produced. This measurement makes it possible to determine the modulatory activity of the compounds according to the invention by the determination of the constant which is the affinity of the molecule for the PPAR receptor. Since this value can fluctuate depending on the basal activity and the expression of the receptor, it is referred to as apparent Kd (KdApp in nM).
(§2) To determine this constant, “crossed curves” for the test product, against a reference agonist, are prepared using a 96-well plate: 10 concentrations of the test product plus a concentration 0 are arranged in a line, and 7 concentrations of the agonist plus a concentration 0 are arranged in a column. This is 88 measurement points for 1 product and 1 receptor. The remaining 8 wells are used for repeatability controls.
(§3) Measurements are also taken for total agonist controls with the same products.
(§4) The HeLN cell lines used are stable transfectants containing the plasmids ERE-βGlob-Luc-SV-Neo (reporter gene) and PPAR (α, δ, γ) Gal-hPPAR. These cells are seeded in 96-well plates at the rate of 10 000 cells per well in 100 μl of DMEM medium without phenol red and supplemented with 10% of defatted calf serum. The plates are then incubated for 16 hours at 37° C. and 7% CO2.
(§5) The various dilutions of the test products and of the reference ligand are added at the rate of 5 μl per well. The plates are subsequently incubated for 18 hours at 37° C. and 7% CO2. The culture medium is removed by turning over and 100 μl of a 1:1 PBS/luciferin mixture are added to each well. After 5 minutes, the plates are read using the luminescence reader.

For experiment [1], the target named is T2, PPARγ (Homo sapiens, UniProt P37231).
T2 construct: PPARγ KdApp; other: HeLN cells stably transfected with Gal-hPPARγ and luciferase reporter; KdApp in nM (PPARγ receptors), compounds according to the present invention; Either is a handle for the test and no part of the key
T2 sequence (P37231 238-505 limits assumed): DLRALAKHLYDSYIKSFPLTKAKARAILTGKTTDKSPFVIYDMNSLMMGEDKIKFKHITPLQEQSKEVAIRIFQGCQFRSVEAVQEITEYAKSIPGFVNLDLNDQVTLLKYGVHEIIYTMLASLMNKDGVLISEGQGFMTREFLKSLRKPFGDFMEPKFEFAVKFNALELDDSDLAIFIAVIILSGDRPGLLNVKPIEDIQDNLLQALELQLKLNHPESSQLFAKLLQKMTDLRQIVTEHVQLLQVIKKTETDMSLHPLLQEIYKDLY
In words: Crossed-curve PPAR transactivation assay (PPARγ). Format: cell-based. Conditions: for pKd: HeLN cells stably transfected with Gal-hPPARγ and luciferase reporter, crossed curves vs reference agonist, Schild regression, read-out: PPARγ KdApp. As to the method: as §1, §2, §3, §4, §5
Background: In a reporter assay the amount or activity of a reporter protein is the signal.

In another experiment the target is T3, PPARδ (Homo sapiens, UniProt Q03181).
T3 construct: Either is a handle for the test and no part of the key
T3 sequence (Q03181 171-441 limits assumed): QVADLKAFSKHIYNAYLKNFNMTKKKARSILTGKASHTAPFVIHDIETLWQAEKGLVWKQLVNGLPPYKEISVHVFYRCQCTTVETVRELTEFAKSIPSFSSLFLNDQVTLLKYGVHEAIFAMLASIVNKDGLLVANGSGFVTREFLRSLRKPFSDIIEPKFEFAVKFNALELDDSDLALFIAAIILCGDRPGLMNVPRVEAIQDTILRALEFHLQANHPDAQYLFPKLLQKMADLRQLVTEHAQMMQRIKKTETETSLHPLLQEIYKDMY
In words: Crossed-curve PPAR transactivation assay (PPARδ). Format: cell-based. Conditions: HeLN cells stably transfected with Gal-hPPARδ and luciferase reporter; crossed curves vs reference agonist, Schild regression; read-out: PPARδ KdApp. Here is the method: as §1, §2, §3, §4, §5

Experiment [2] addresses PPARγ. Conditions: Table 1, PPARγ receptors; values described for the compounds of FR-2,812,876; read-out: KdApp in nM (PPARγ receptors), compounds according to Patent FR 2 812 876; cited from earlier work.

pKd: −log10 of the molar value. Like-named read-outs stand apart in the source and are kept apart here.

In the case of `CCCCCCCNC(=O)N(C)c1cccc(-c2ccc(C[C@H](OCC)C(=O)O)cc2)c1` [Example 1, 2(S)-Ethoxy-3-[3′-(3-heptyl-1-methylureido)biphenyl-4-yl]propanoic acid], the results for the pKd on PPARα, at PPARγ [1] and on PPARδ were 7.52, over 9.00 and 6.60, respectively. For the same molecule, the Kd at PPARγ [1] (Table 1, PPARγ receptors, read-out: KdApp in nM (PPARγ receptors), compounds according to the present invention) was under 1 nM.
Turning to `CCCCCNC(=O)N(C)c1cccc(-c2ccc(C[C@H](OCC)C(=O)O)cc2)c1` [Example 2, 2(S)-Ethoxy-3-[3′-(1-methyl-3-pentylureido)biphenyl-4-yl]propanoic acid], the pKd at PPARα was 6.60; on PPARγ [1], 10.52; on PPARδ, 5.70.
For `CCCCCCCNC(=O)N(C)c1cccc(-c2ccc(C[C@H](OCCC)C(=O)O)cc2)c1` [Example 4, 2-(S)-Propyloxy-3-[3′-(3-heptyl-1-methylureido)biphenyl-4-yl]propanoic acid], in that order: 7.52, 10.60 and 6.30.
For `CCCCCCCNC(=O)N(C)c1cccc(-c2ccc(C[C@H](OCc3ccccc3)C(=O)O)cc2)c1` [Example 5, 2(S)-Benzyloxy-3-[3′-(3-heptyl-1-methylureido)biphenyl-4-yl]propanoic acid], the pKd was 6.60 on PPARα and 10.52 on PPARγ [1].
As to `C=CCO[C@@H](Cc1ccc(-c2cccc(N(C)C(=O)NCCCCCCC)c2)cc1)C(=O)O` [Example 6, 2(S)-Allyloxy-3-[3′-(3-heptyl-1-methylureido)biphenyl-4-yl]propanoic acid], the figures for the pKd on PPARα, at PPARγ [1] and on PPARδ were 8.70, 11.52 and 7.30, respectively.
For the molecule `CCO[C@@H](Cc1ccc(-c2cccc(CN(C)C(=O)c3ccccc3)c2)cc1)C(=O)O` [Example 13, (S)-2-Ethoxy-3-(3′-{[methyl(1-phenylmethanoyl)amino]methyl}biphenyl-4-yl)propionic acid], the Kd on PPARγ [2] was 500 nM.
As to `CN(Cc1cccc(-c2ccc(CC3SC(=O)NC3=O)cc2)c1)C(=O)C(C)(C)C` (centres unmarked) [Example 22, N-[4′-(2,4-Dioxothiazolidin-5-ylmethyl)biphenyl-3-ylmethyl]-2,2,N-trimethylpropionamide], the Kd on PPARγ [2] was 250 nM.
In the case of `CCCCCCCCNC(=O)c1cccc(-c2ccc(CC3SC(=O)NC3=O)cc2)c1` (centres unmarked) [Example 23, N-Octyl-4′-(2,4-dioxothiazolidin-5-ylmethyl)biphenyl-3-carboxamide], the Kd on PPARγ [2] was 2000 nM.
With `CCCCCCCCCC(=O)N(C)Cc1cccc(-c2ccc(CC3SC(=O)NC3=O)cc2)c1` (centres unmarked) [Example 32, N-[4′-(2,4-Dioxothiazolidin-5-ylmethyl)biphenyl-3-ylmethyl]-N-methyldecanamide], the Kd on PPARγ [2] is 250 nM.
In the case of `CCCCCCC(=O)N(C)Cc1cccc(-c2ccc(CC3SC(=O)NC3=O)cc2)c1` (centres unmarked) [Example 35, N-[4′-(2,4-Dioxothiazolidin-5-ylmethyl)biphenyl-3-ylmethyl]-N-methylheptanamide], the Kd at PPARγ [2] was 1000 nM.
